Experimental data reported in ChEMBL document CHEMBL5576149, “Discovery of Potent STT3A/B Inhibitors and Assessment of Their Multipathogen Antiviral Potential and Safety” (J Med Chem, 2024).
In brackets after ≈: the same amount, converted by molar mass. Activity calls are given as the source filed them. The calls are words filed in the database; no cut-off is given here.

How the values were obtained:
[1] = Cardiotoxicity in human iPSC-CM cells assessed as decrease in spike amplitude incubated for 48 hr by multi-electrode array analysis; format: toxicity, cell-based
[2] = Cardiotoxicity in human iPSC-CM cells assessed as increase in field potential duration incubated for 48 hr by multi-electrode array analysis; format: toxicity, cell-based
Mus musculus [3] = test: In vivo inhibition of STT3A/STT3B in C57BL/6 mouse assessed as upregulation of MANF expression in lung at 0.1 to 10 mg/kg,po measured after 6 hrs by RT-qPCR analysis; format: functional, organism-based; details: dose 0.1-10 mg/kg
Mus musculus [4] = test: In vivo inhibition of STT3A/STT3B in C57BL/6 mouse assessed as upregulation of […] expression in blood at 0.1 to 10 mg/kg,po measured after 6 hrs by RT-qPCR analysis; format: functional, organism-based; details: dose 0.1-10 mg/kg
Mus musculus [5] = test: In vivo inhibition of STT3A/STT3B in C57BL/6 mouse assessed as upregulation of MANF expression in blood at 0.1 to 10 mg/kg,po measured after 6 hrs by RT-qPCR analysis; format: functional, organism-based; details: dose 0.1-10 mg/kg
[6] = Inhibition of STT3A/STT3B mediated N-linked glycosylation in human H1-HeLa cells stably transduced with ERluc by measuring effective concentration of inhibition incubated for 18 hrs by One-Glo luciferase reporter assay; format: cell-based
Mus musculus [7] = test: In vivo inhibition of STT3A/STT3B in C57BL/6 mouse assessed as upregulation of SDF2L1 expression in blood at 0.1 to 10 mg/kg,po measured after 6 hrs by RT-qPCR analysis; format: functional, organism-based; details: dose 0.1-10 mg/kg
Mus musculus [8] = test: In vivo inhibition of STT3A/STT3B in C57BL/6 mouse assessed as upregulation of SDF2L1 expression in lung at 0.1 to 10 mg/kg,po measured after 6 hrs by RT-qPCR analysis; format: functional, organism-based; details: dose 0.1-10 mg/kg
[9] = Solubility of compound in FaSSIF; format: ADME
[10] = Inhibition of STT3A/STT3B mediated N-linked glycosylation in STT3A knockout human H1-HeLa cells stably transduced with Halo3N-ER sequence by measuring effective concentration incubated for 24 hrs by Western blotting analysis; format: cell-based
[11] = Unbound clearance in CD1 mouse at 2 mg/kg,po or 1 mg/kg,iv administrated upto 60 mins by LC-MS/MS analysis; format: ADME, organism-based; details: in vivo, 1 h
[12] = Bioavailability in CD1 mouse at 2 mg/kg,po or 1 mg/kg,iv administrated upto 60 mins by LC-MS/MS analysis; format: ADME, organism-based; details: in vivo
[13] = Cytotoxicity against human Hepatocyte cultured as 3D spheroids incubated for 14 days by CellTiter-Glo luminescence assay; format: toxicity, cell-based; details: hepatocytes cultured as 3D spheroids
[14] = Chromatographic hydrophobicity index, logD of the compound at pH 7.4; format: physicochemical; details: buffer
[15] = Unbound clearance in mouse liver microsomes at 0.5 uM incubated upto 45 mins; format: ADME, Microsome; details: 0.75 h
[16] = Inhibition of STT3A/STT3B mediated N-linked glycosylation in STT3B knockout human H1-HeLa cells stably transduced with Halo3N-ER sequence by measuring effective concentration incubated for 24 hrs by Western blotting analysis; format: cell-based
[17] = Volume of distribution at steady state in CD1 mouse at 2 mg/kg,po or 1 mg/kg,iv administrated upto 60 mins by LC-MS/MS analysis; format: ADME, organism-based; details: in vivo, 1 h
Mus musculus [18] = test: In vivo inhibition of STT3A/STT3B in C57BL/6 mouse assessed as upregulation of […] expression in lung at 0.1 to 10 mg/kg,po measured after 6 hrs by RT-qPCR analysis; format: functional, organism-based; details: dose 0.1-10 mg/kg
Mus musculus [19] = test: In vivo inhibition of STT3A/STT3B in C57BL/6 mouse assessed as upregulation of DERL3 expression in lung at 0.1 to 10 mg/kg,po measured after 6 hrs by RT-qPCR analysis; format: functional, organism-based; details: dose 0.1-10 mg/kg
Mus musculus [20] = test: In vivo inhibition of STT3A/STT3B in C57BL/6 mouse assessed as upregulation of DERL3 expression in blood at 0.1 to 10 mg/kg,po measured after 6 hrs by RT-qPCR analysis; format: functional, organism-based; details: dose 0.1-10 mg/kg
[21] = MRT in CD1 mouse at 2 mg/kg,po or 1 mg/kg,iv administrated upto 60 mins by LC-MS/MS analysis; format: ADME, organism-based; details: in vivo
[22] = Unbound clearance in human liver microsomes at 0.5 uM incubated upto 45 mins; format: ADME, Microsome; details: 0.75 h
[23] = Cardiotoxicity in human iPSC-CM cells assessed as decrease in spike amplitude at 370 nM incubated for 48 hr by multi-electrode array analysis; format: toxicity, cell-based; details: 0.37 µM
[24] = Cardiotoxicity in human iPSC-CM cells assessed as decrease in beat period at 30 uM incubated for 1 hr by multi-electrode array analysis; format: toxicity, cell-based
[25] = biological target: Sodium channel protein type 5 subunit alpha (Homo sapiens, UniProt Q14524); test: Inhibition of Nav1.5 (unknown origin); format: toxicity
[26] = Cardiotoxicity in human iPSC-CM cells assessed as increase in field potential duration at 370 nM incubated for 48 hr by multi-electrode array analysis; format: toxicity, cell-based; details: 0.37 µM
[27] = Cardiotoxicity in human iPSC-CM cells assessed as decrease in spike amplitude at 3 uM incubated for 1 hr by multi-electrode array analysis; format: toxicity, cell-based; set-up: scale not given: the % may be the effect or the level left
[28] = biological target: Voltage-dependent L-type calcium channel subunit alpha-1C (Homo sapiens, UniProt Q13936); test: Inhibition of Cav1.2 (unknown origin) expressed in HEK cells by manual patch clamp assay; format: toxicity, cell-based
[29] = Cardiotoxicity in human iPSC-CM cells assessed as decrease in beat period at 1 uM incubated for 48 hr by multi-electrode array analysis; format: toxicity, cell-based
H1-HeLa [30] = test: Inhibition of STT3A/STT3B in human H1-HeLa cells assessed as upregulation of DERL3 gene expression incubated for 24 hrs; format: cell-based
H1-HeLa [31] = test: Inhibition of STT3A/STT3B in human H1-HeLa cells assessed as upregulation of […] gene expression incubated for 24 hrs; format: cell-based
[32] = Neurotoxicity in human iPSC cells co-cultured with human astrocyte assessed as reduction in neuronal firing rate at 0.37 to 30 uM incubated for 1 hr by multi-electrode array analysis; format: toxicity, cell-based; details: dose 0.37-30 µM
H1-HeLa [33] = test: Inhibition of STT3A/STT3B in human H1-HeLa cells assessed as upregulation of SDF2L1 gene expression incubated for 24 hrs; format: cell-based
Human coronavirus 229E = test: Antiviral activity against Human coronavirus 229E infected in human MRC5 cells assessed as reduction in viral growth incubated for 68 hrs by CellTiter-Glo luminescence assay; format: functional, organism-based; details: MRC5, 68 h
Influenza A virus [34] = test: Antiviral activity against influenza A virus H1N1 A/Puerto Rico/8/1934 infected in MDCK cells assessed as reduction in viral proliferation incubated for 24 hrs by FFU assay; format: functional, organism-based; details: H1N1 A/Puerto Rico/8/1934, MDCK
SARS-CoV-2 = test: Antiviral activity against SARS-CoV-2 infected in human A549 cells assessed as reduction in viral growth incubated for 24 hrs by Nano-Glo reagent based analysis; format: functional, organism-based; details: Severe acute respiratory syndrome coronavirus 2, A549, 24 h
[35] = biological target: T1, Voltage-gated inwardly rectifying potassium channel KCNH2 (Homo sapiens, UniProt Q12809); test: Inhibition of hERG expressed in CHO cells by QPatch voltage clamp assay; format: toxicity, cell-based
Influenza A virus [36] = test: Antiviral activity against influenza A virus H1N1 A/Puerto Rico/8/1934 infected in MDCK cells assessed as reduction in viral replication measured after 3 hrs of post-infection by RT-qPCR analysis relative to control; format: functional; set-up: scale not given: the % may be the effect or the level left
[37] = Unbound clearance in rat liver microsomes at 0.5 uM incubated upto 45 mins; format: ADME, Microsome; details: 0.75 h
H1-HeLa [38] = test: Inhibition of STT3A/STT3B in human H1-HeLa cells assessed as upregulation of MANF gene expression incubated for 24 hrs; format: cell-based
[39] = Neurotoxicity in human iPSC cells co-cultured with human astrocyte assessed as inhibition of cell growth at 300 nM incubated for 48 hr by multi-electrode array analysis relative to control; format: toxicity, cell-based; details: iPSC cells co-cultured with astrocytes
A549 [40] = test: Cytotoxicity against human A549 cells by fluorescent cell imaging assay; format: functional
[41] = Cardiotoxicity in human iPSC-CM cells assessed as increase in field potential duration at 10 uM incubated for 1 hr by multi-electrode array analysis; format: toxicity, cell-based
[42] = Neurotoxicity in human iPSC cells co-cultured with human astrocyte assessed as […] incubated for 1 hr by multi-electrode array analysis; format: toxicity, cell-based; details: iPSC cells co-cultured with astrocytes
Influenza A virus [43] = test: Antiviral activity against influenza A virus H1N1 A/Puerto Rico/8/1934 infected in MDCK cells assessed as reduction in viral replication measured after 30 hrs of post-infection by RT-qPCR analysis relative to control; format: functional; set-up: scale not given: the % may be the effect or the level left
A549 [44] = test: Cytotoxicity against human A549 cells; format: functional
Human respirovirus 3 = test: Antiviral activity against Human parainfluenza virus 3 JS infected in human A549 cells assessed as reduction in viral proliferation incubated for 44 hrs by Hoechst dye based fluorescence analysis; format: functional, organism-based; details: Human respirovirus 3, JS, A549, 44 h
[45] = Cytotoxicity against human MRC5 cells by luminescence-based cell viability assay; format: toxicity
[46] = biological target: T1, Voltage-gated inwardly rectifying potassium channel KCNH2; test: Inhibition of HA-tagged hERG expressed in human U2OS cells assessed as reduction in ERG protein at 3 uM incubated for 24 hrs by Western blotting analysis; format: toxicity, cell-based

T1 sequence (Q12809 whole entry): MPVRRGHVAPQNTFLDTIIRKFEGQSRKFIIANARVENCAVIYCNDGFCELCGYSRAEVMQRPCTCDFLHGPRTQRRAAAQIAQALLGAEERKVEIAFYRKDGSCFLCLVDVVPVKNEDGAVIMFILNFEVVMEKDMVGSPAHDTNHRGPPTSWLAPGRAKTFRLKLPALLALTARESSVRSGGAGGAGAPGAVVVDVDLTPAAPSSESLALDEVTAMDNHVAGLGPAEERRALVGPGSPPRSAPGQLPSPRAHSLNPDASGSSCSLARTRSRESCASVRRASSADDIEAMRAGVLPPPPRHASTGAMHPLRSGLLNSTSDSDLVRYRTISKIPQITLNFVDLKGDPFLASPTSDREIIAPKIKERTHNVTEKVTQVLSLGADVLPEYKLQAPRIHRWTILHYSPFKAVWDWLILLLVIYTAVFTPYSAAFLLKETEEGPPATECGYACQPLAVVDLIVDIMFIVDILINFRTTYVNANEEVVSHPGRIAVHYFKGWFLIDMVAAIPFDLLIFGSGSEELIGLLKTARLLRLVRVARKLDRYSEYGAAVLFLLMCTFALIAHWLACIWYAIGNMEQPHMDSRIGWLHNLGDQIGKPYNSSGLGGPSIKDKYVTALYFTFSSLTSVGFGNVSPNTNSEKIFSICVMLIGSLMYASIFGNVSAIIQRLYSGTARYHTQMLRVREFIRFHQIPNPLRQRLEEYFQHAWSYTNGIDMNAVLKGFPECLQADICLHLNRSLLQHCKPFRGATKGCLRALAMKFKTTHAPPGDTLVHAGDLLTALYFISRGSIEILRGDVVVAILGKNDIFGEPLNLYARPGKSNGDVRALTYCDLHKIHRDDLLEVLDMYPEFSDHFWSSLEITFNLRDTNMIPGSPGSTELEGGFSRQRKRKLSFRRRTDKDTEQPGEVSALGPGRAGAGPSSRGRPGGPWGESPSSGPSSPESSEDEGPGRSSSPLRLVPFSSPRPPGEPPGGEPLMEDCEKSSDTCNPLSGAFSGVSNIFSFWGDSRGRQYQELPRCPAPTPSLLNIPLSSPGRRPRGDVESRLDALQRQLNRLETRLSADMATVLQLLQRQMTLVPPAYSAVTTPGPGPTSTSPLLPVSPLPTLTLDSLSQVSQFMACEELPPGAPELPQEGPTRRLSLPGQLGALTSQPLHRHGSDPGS
Chain of Sodium channel protein type 5 subunit alpha (Q14524 whole entry): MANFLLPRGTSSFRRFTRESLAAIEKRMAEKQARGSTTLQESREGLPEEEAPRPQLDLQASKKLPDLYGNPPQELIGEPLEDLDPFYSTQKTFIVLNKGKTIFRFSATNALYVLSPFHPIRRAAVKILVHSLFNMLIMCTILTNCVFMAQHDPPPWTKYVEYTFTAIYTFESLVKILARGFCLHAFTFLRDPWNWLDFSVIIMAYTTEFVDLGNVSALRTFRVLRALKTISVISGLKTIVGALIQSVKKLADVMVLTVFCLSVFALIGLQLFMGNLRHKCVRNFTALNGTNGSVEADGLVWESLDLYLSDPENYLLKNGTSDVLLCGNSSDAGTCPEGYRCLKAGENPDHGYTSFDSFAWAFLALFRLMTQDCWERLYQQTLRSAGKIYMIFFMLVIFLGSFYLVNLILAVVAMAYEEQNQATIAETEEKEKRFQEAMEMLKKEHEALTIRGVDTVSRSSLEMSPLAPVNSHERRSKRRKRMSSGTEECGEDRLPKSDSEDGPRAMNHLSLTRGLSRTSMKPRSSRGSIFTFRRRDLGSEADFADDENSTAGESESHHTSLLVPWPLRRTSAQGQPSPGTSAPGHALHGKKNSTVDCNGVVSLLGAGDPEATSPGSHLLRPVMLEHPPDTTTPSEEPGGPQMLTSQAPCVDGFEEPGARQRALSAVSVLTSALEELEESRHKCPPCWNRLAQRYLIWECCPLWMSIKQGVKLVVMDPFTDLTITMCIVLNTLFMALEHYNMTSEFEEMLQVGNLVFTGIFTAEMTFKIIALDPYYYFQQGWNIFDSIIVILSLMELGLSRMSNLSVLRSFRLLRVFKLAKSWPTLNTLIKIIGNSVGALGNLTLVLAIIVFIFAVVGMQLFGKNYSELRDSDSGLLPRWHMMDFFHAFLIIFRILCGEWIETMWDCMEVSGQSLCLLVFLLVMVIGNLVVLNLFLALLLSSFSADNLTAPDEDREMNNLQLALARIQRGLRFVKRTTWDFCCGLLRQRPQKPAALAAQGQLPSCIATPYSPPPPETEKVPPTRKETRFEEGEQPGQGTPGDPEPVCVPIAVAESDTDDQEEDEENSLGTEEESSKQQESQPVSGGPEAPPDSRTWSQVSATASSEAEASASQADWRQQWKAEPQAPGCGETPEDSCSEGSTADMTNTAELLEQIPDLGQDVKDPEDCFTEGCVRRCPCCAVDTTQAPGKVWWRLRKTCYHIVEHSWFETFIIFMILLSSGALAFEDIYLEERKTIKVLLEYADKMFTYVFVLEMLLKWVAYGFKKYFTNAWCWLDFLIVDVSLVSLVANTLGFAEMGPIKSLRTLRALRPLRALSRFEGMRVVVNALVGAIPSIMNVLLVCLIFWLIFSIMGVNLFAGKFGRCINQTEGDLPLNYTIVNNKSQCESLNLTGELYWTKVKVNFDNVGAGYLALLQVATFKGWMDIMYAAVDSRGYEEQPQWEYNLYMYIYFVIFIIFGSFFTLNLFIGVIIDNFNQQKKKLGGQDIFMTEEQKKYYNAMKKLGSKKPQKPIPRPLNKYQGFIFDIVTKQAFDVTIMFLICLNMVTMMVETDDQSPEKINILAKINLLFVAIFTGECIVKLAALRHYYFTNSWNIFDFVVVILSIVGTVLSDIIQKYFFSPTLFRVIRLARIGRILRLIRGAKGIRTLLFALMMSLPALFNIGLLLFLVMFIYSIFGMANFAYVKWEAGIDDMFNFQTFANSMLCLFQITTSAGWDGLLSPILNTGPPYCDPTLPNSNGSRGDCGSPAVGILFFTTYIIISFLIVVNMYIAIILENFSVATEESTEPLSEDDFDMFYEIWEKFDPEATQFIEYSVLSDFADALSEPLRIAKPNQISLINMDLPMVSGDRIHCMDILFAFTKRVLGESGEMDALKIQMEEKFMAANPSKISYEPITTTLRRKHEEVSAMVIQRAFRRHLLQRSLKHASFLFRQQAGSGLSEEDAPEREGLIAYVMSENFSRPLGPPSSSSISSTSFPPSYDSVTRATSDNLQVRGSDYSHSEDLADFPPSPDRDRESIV

## C=C[C@H]1C[N@@]2CC[C@H]1C[C@@H]2[C@@H](O)c1ccnc2ccc(OC)cc12 [QUINIDINE]
[1]
  Activity: Non-Toxic
[2]
  Activity: Non-Toxic

## C[S@@](=N)(=O)c1ccc(N2CC[C@H](O)C2)c(-c2cc3ccccc3[nH]2)c1
Mus musculus [3]
  inhibition: Active
Mus musculus [4]
  inhibition: Active
Mus musculus [5]
  inhibition: Active
[6]
  EC50: 15 nM
Mus musculus [7]
  inhibition: Active
Mus musculus [8]
  inhibition: Active
[9]
  solubility: 767 µg/mL (≈ 2160 µM)
[10]
  EC50: 28 nM
[11]
  CL free: 38 mL/min/kg
[12]
  bioavailability: 62%
[13]
  IC50 at 14 days: < 1200 nM
[14]
  chromatographic logD: 2.7
[15]
  CL free: 30 mL/min/kg
[16]
  EC50: 10 nM
[17]
  Vdss: 2 L/kg
Mus musculus [18]
  inhibition: Active
Mus musculus [19]
  inhibition: Active
Mus musculus [20]
  inhibition: Active
[21]
  MRT: 3 h
[22]
  CL free: < 12 mL/min/kg

## CN(C)S(=O)(=O)c1ccc(N2CC[C@H](O)C2)c(-c2cc3ccccc3[nH]2)c1
[23]
  Activity: Toxic
[24]
  Activity: Toxic
[25]
  IC50: ~20000 nM
[26]
  Activity: Toxic
[27]
  Activity: 20%
[28]
  IC50: > 100000 nM
[29]
  Activity: Toxic
H1-HeLa [30]
  inhibition: Active
[6]
  EC50: 23 nM
H1-HeLa [31]
  inhibition: Active
[32]
  Activity: Toxic
[9]
  solubility: 53 µg/mL (≈ 137 µM)
[10]
  EC50: 63 nM
H1-HeLa [33]
  inhibition: Active
Human coronavirus 229E
  EC50: 30 nM
Influenza A virus [34]
  EC50: 297 nM
SARS-CoV-2
  EC50: 62 nM
[35]
  IC50: ~20000 nM
[11]
  CL free: 2268 mL/min/kg
Influenza A virus [36]
  Activity: >90%
[12]
  bioavailability: 28%
[37]
  CL free: 3761 mL/min/kg
H1-HeLa [38]
  inhibition: Active
[13]
  IC50 at 14 days: < 1200 nM
[14]
  chromatographic logD: 4.8
[16]
  EC50: 41 nM
[17]
  Vdss: 4.3 L/kg
[39]
  inhibition at 48 h, 0.3 µM: 75%
A549 [40]
  CC50: 831 nM
[41]
  Activity: 20%
[42]
  IC50 at 1 hr: 23000 nM
Influenza A virus [43]
  Activity: 60%
A549 [44]
  CC50: 2750 nM
Human respirovirus 3
  EC50: 187 nM
[45]
  CC50: 984 nM
[21]
  MRT: 1 h
[22]
  CL free: 158 mL/min/kg

## O=C([C@@H]1CCN1S(=O)(=O)c1ccc(N2CCC(F)(F)C2)c(-c2cc3ccccc3[nH]2)c1)N1CCOCC1
[46]
  inhibition (INH): Active
[6]
  EC50: 5 nM
[37]
  CL free: > 4854 mL/min/kg
[13]
  IC50 at 14 days: < 1200 nM
[14]
  chromatographic logD: 5.3
[22]
  CL free: > 2851 mL/min/kg
